Experimental data published in PubChem BioAssay (NCI).
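Assay format: 96-well plates, 48-hour exposure. At the GI50, growth is halved. TGI denotes the concentration required for complete inhibition of growth.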

Columns and labels:
Assay in all cases: DTP human tumour cell line panel, 48 h
A498 renal = test system: A498 renal
A549 NSCLC = test system: A549 NSCLC
ACHN renal = test system: ACHN renal
BT-549 breast = test system: BT-549 breast
CAKI-1 renal = test system: CAKI-1 renal
CCRF-CEM leukemia = test system: CCRF-CEM leukemia
COLO 205 colon = test system: COLO 205 colon
DU-145 prostate = test system: DU-145 prostate
EKVX NSCLC = test system: EKVX NSCLC
HCC-2998 colon = test system: HCC-2998 colon
HCT-15 colon = test system: HCT-15 colon
HL-60(TB) leukemia = test system: HL-60(TB) leukemia
HOP-62 NSCLC = test system: HOP-62 NSCLC
HOP-92 NSCLC = test system: HOP-92 NSCLC
HS 578T breast = test system: HS 578T breast
HT29 colon = test system: HT29 colon
IGROV1 ovarian = test system: IGROV1 ovarian
K-562 leukemia = test system: K-562 leukemia
KM12 colon = test system: KM12 colon
M14 melanoma = test system: M14 melanoma
MALME-3M melanoma = test system: MALME-3M melanoma
MCF7 breast = test system: MCF7 breast
MDA-MB-231 breast = test system: MDA-MB-231 breast
MDA-MB-435 = test system: MDA-MB-435
MOLT-4 leukemia = test system: MOLT-4 leukemia
NCI-H226 lung = test system: NCI-H226 lung
NCI-H23 lung = test system: NCI-H23 lung
NCI-H460 lung = test system: NCI-H460 lung
NCI-H522 lung = test system: NCI-H522 lung
NCI/ADR-RES ovarian = test system: NCI/ADR-RES ovarian
OVCAR-3 ovarian = test system: OVCAR-3 ovarian
OVCAR-4 ovarian = test system: OVCAR-4 ovarian
OVCAR-5 ovarian = test system: OVCAR-5 ovarian
OVCAR-8 ovarian = test system: OVCAR-8 ovarian
PC-3 prostate = test system: PC-3 prostate
RXF 393 renal = test system: RXF 393 renal
SF-268 CNS = test system: SF-268 CNS
SF-295 CNS = test system: SF-295 CNS
SF-539 CNS = test system: SF-539 CNS
SK-MEL-2 melanoma = test system: SK-MEL-2 melanoma
SK-MEL-28 melanoma = test system: SK-MEL-28 melanoma
SK-MEL-5 melanoma = test system: SK-MEL-5 melanoma
SK-OV-3 ovarian = test system: SK-OV-3 ovarian
SN12C renal = test system: SN12C renal
SNB-19 CNS = test system: SNB-19 CNS
SNB-75 CNS = test system: SNB-75 CNS
SR leukemia = test system: SR leukemia
SW-620 colon = test system: SW-620 colon
T-47D breast = test system: T-47D breast
TK-10 renal = test system: TK-10 renal
U251 CNS = test system: U251 CNS
UACC-257 melanoma = test system: UACC-257 melanoma
UACC-62 melanoma = test system: UACC-62 melanoma
UO-31 renal = test system: UO-31 renal
786-0 renal = test system: 786-0 renal
HCT-116 colon = test system: HCT-116 colon
LOX IMVI melanoma = test system: LOX IMVI melanoma
RPMI-8226 leukemia = test system: RPMI-8226 leukemia

Q: Which results are given for `NC(=O)c1ncn2c1CNC(=O)C2`?
A: TGI (A498 renal): > 100 µM; TGI (A549 NSCLC): > 100 µM; TGI (ACHN renal): > 100 µM; TGI (BT-549 breast): > 100 µM; TGI (CAKI-1 renal): > 100 µM; TGI (CCRF-CEM leukemia): > 100 µM; TGI (COLO 205 colon): > 100 µM; TGI (DU-145 prostate): > 100 µM; TGI (EKVX NSCLC): > 100 µM; TGI (HCC-2998 colon): > 100 µM; TGI (HCT-15 colon): > 100 µM; TGI (HL-60(TB) leukemia): > 100 µM; TGI (HOP-62 NSCLC): > 100 µM; TGI (HOP-92 NSCLC): > 100 µM; TGI (HS 578T breast): > 100 µM; TGI (HT29 colon): > 100 µM; TGI (IGROV1 ovarian): > 100 µM; TGI (K-562 leukemia): > 100 µM; TGI (KM12 colon): > 100 µM; TGI (M14 melanoma): > 100 µM; TGI (MALME-3M melanoma): > 100 µM; TGI (MCF7 breast): > 100 µM; TGI (MDA-MB-231 breast): > 100 µM; TGI (MDA-MB-435): > 100 µM; TGI (MOLT-4 leukemia): > 100 µM; TGI (NCI-H226 lung): > 100 µM; TGI (NCI-H23 lung): > 100 µM; TGI (NCI-H460 lung): > 100 µM; TGI (NCI-H522 lung): > 100 µM; TGI (NCI/ADR-RES ovarian): > 100 µM; TGI (OVCAR-3 ovarian): > 100 µM; TGI (OVCAR-4 ovarian): > 100 µM; TGI (OVCAR-5 ovarian): > 100 µM; TGI (OVCAR-8 ovarian): > 100 µM; TGI (PC-3 prostate): > 100 µM; TGI (RXF 393 renal): > 100 µM; TGI (SF-268 CNS): > 100 µM; TGI (SF-295 CNS): > 100 µM; TGI (SF-539 CNS): > 100 µM; TGI (SK-MEL-2 melanoma): > 100 µM; TGI (SK-MEL-28 melanoma): > 100 µM; TGI (SK-MEL-5 melanoma): > 100 µM; TGI (SK-OV-3 ovarian): > 100 µM; TGI (SN12C renal): > 100 µM; TGI (SNB-19 CNS): > 100 µM; TGI (SNB-75 CNS): > 100 µM; TGI (SR leukemia): > 100 µM; TGI (SW-620 colon): > 100 µM; TGI (T-47D breast): > 100 µM; TGI (TK-10 renal): > 100 µM; TGI (U251 CNS): > 100 µM; TGI (UACC-257 melanoma): > 100 µM; TGI (UACC-62 melanoma): > 100 µM; TGI (UO-31 renal): > 100 µM

Q: Which results are given for `Cc1nc2ccc(Nc3nc(Cl)nc(Nc4ccc(F)cc4)n3)cc2n1Cc1ccccc1`?
A: GI50 (786-0 renal): 5.18 µM; TGI (786-0 renal): 37 µM; GI50 (A498 renal): 13.2 µM; TGI (A498 renal): 41 µM; GI50 (A549 NSCLC): 11.3 µM; TGI (A549 NSCLC): 30.9 µM; GI50 (ACHN renal): 3 µM; TGI (ACHN renal): 10.4 µM; GI50 (BT-549 breast): 4 µM; TGI (BT-549 breast): 18.8 µM; GI50 (CAKI-1 renal): 7.94 µM; TGI (CAKI-1 renal): 35.2 µM; GI50 (CCRF-CEM leukemia): 3.85 µM; TGI (CCRF-CEM leukemia): > 100 µM; GI50 (COLO 205 colon): 11.2 µM; TGI (COLO 205 colon): 26.5 µM; GI50 (DU-145 prostate): 9.44 µM; TGI (DU-145 prostate): 22.6 µM; GI50 (HCC-2998 colon): 2.6 µM; TGI (HCC-2998 colon): 5.96 µM; GI50 (HCT-116 colon): 3.56 µM; TGI (HCT-116 colon): 13.6 µM; GI50 (HCT-15 colon): 2.92 µM; TGI (HCT-15 colon): 10.4 µM; GI50 (HL-60(TB) leukemia): 3.02 µM; TGI (HL-60(TB) leukemia): 7.6 µM; GI50 (HOP-62 NSCLC): 10.7 µM; TGI (HOP-62 NSCLC): 30.4 µM; GI50 (HOP-92 NSCLC): 2.3 µM; TGI (HOP-92 NSCLC): 9.23 µM; GI50 (HS 578T breast): 10.9 µM; TGI (HS 578T breast): > 100 µM; GI50 (IGROV1 ovarian): 4.4 µM; TGI (IGROV1 ovarian): 20.8 µM; GI50 (K-562 leukemia): 3.43 µM; TGI (K-562 leukemia): > 100 µM; GI50 (KM12 colon): 4.25 µM; TGI (KM12 colon): 17.6 µM; GI50 (LOX IMVI melanoma): 3.59 µM; TGI (LOX IMVI melanoma): 14.1 µM; GI50 (M14 melanoma): 5.54 µM; TGI (M14 melanoma): 22 µM; GI50 (MALME-3M melanoma): 11.4 µM; TGI (MALME-3M melanoma): 24.6 µM; GI50 (MCF7 breast): 2.71 µM; TGI (MCF7 breast): 12.4 µM; GI50 (MDA-MB-231 breast): 3.99 µM; TGI (MDA-MB-231 breast): 20.4 µM; GI50 (MDA-MB-435): 6.4 µM; TGI (MDA-MB-435): 23.1 µM; GI50 (MOLT-4 leukemia): 3.92 µM; TGI (MOLT-4 leukemia): 18.1 µM; GI50 (NCI-H226 lung): 4.14 µM; TGI (NCI-H226 lung): 21.6 µM; GI50 (NCI-H23 lung): 7.16 µM; TGI (NCI-H23 lung): 25.2 µM; GI50 (NCI-H460 lung): 4.23 µM; TGI (NCI-H460 lung): 17.8 µM; GI50 (NCI-H522 lung): 2.51 µM; TGI (NCI-H522 lung): 6.85 µM; GI50 (NCI/ADR-RES ovarian): 4.11 µM; TGI (NCI/ADR-RES ovarian): 18.5 µM; GI50 (OVCAR-3 ovarian): 4.06 µM; TGI (OVCAR-3 ovarian): 15 µM; GI50 (OVCAR-5 ovarian): 14.7 µM; TGI (OVCAR-5 ovarian): 44.1 µM; GI50 (OVCAR-8 ovarian): 3.25 µM; TGI (OVCAR-8 ovarian): 14.1 µM; GI50 (PC-3 prostate): 7.11 µM; TGI (PC-3 prostate): 32.9 µM; GI50 (RPMI-8226 leukemia): 2.05 µM; TGI (RPMI-8226 leukemia): 5.09 µM; GI50 (RXF 393 renal): 4.45 µM; TGI (RXF 393 renal): 21.5 µM; GI50 (SF-268 CNS): 10.8 µM; TGI (SF-268 CNS): 46.8 µM; GI50 (SF-295 CNS): 1.9 µM; TGI (SF-295 CNS): 4.53 µM; GI50 (SF-539 CNS): 4.53 µM; TGI (SF-539 CNS): 17.4 µM; GI50 (SK-MEL-2 melanoma): 4.15 µM; TGI (SK-MEL-2 melanoma): 15 µM; GI50 (SK-MEL-28 melanoma): 3.15 µM; TGI (SK-MEL-28 melanoma): 10.5 µM; GI50 (SK-MEL-5 melanoma): 4.19 µM; TGI (SK-MEL-5 melanoma): 15.1 µM; GI50 (SK-OV-3 ovarian): 18.1 µM; TGI (SK-OV-3 ovarian): 66.8 µM; GI50 (SN12C renal): 5.22 µM; TGI (SN12C renal): 38.3 µM; GI50 (SNB-19 CNS): 4.55 µM; TGI (SNB-19 CNS): 26.9 µM; GI50 (SNB-75 CNS): 10.2 µM; TGI (SNB-75 CNS): 26.2 µM; GI50 (SR leukemia): 3.79 µM; TGI (SR leukemia): 39.5 µM; GI50 (SW-620 colon): 4.95 µM; TGI (SW-620 colon): 35 µM; GI50 (T-47D breast): 1.81 µM; TGI (T-47D breast): 4.58 µM; GI50 (TK-10 renal): 18.1 µM; TGI (TK-10 renal): 44.4 µM; GI50 (UACC-257 melanoma): 11.8 µM; TGI (UACC-257 melanoma): 28.9 µM; GI50 (UACC-62 melanoma): 3.06 µM; TGI (UACC-62 melanoma): 12.9 µM; GI50 (UO-31 renal): 2.85 µM; TGI (UO-31 renal): 12.2 µM
